Assay results as given in patent publication US11505547B2, “Compounds” (STEP PHARMA S.A.S., priority 2017, dated 2022).

molecular target: T1, human CTPS1 (Homo sapiens, UniProt P17812); test: Human CTPS1 enzyme inhibition, ADP-Glo Max assay; assay type: biochemical; details: human full length CTPS1, read-out: CTPS1 (Human CTPS1 Enzyme Inhibition data grouped by potency range, IC50)
T1 construct: purchased Proteros biostructures GmbH
T1 sequence (P17812 1-591): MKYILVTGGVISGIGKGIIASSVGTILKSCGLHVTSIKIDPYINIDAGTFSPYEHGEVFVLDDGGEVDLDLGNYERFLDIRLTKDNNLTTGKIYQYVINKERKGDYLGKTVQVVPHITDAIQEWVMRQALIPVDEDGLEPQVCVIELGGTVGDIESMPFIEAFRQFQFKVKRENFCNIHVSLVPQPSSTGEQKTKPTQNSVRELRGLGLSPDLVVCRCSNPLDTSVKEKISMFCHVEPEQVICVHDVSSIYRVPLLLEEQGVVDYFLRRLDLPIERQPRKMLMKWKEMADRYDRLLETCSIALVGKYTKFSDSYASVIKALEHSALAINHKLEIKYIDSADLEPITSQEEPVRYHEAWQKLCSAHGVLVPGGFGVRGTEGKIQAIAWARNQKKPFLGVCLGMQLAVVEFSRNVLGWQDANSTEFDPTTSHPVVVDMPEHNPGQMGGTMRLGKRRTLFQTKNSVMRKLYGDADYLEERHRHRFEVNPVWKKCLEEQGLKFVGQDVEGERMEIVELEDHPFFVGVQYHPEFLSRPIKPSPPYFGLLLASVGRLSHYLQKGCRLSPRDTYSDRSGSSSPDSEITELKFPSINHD
Procedure: Biological Example 1—Human CTPS1 Enzyme Inhibition
The enzyme inhibitory activities of compounds invented against the target of interest were determined using the ADP-Glo™ Max assay (Promega, UK). Assays for human CTPS1 were performed in 1× assay buffer containing 50 mM Tris, 10 mM MgCl2, 0.01% Tween-20, pH to 8.0 accordingly. Finally, immediately before use, L-cysteine was added to the 1× assay buffer to a final concentration of 2 mM. All reagents are from Sigma-Aldrich unless specified otherwise. Human full length active C-terminal FLAG-Hiss-tag CTPS1 (UniProtKB-P17812, CTPS[1-591]-[…]) was obtained from Proteros biostructures GmbH.
3× human CTPS1 protein was prepared in 1× assay buffer to the final working protein concentration required for the reaction. A 2 uL volume per well of 3× human CTPS1 protein was mixed with 2 uL per well of 3× test compound (compound prepared in 1× assay buffer to an appropriate final 3× compound concentration respective to the concentration response curve designed for the compounds under test) for 10 minutes at 25° C. The enzymatic reaction was then initiated by addition of a 2 uL per well volume of a pre-mixed substrate mix (UltraPure ATP from ADP-Glo™ Max kit (0.31 mM), GTP (0.034 mM), UTP (0.48 mM) and L-glutamine (0.186 mM)) and the mixture was incubated for an appropriate amount of time within the determined linear phase of the reaction at 25° C. under sealed plate conditions with constant agitation at 500 revolutions per minute (rpm). ADP-GIo™ Max reagent was added for 60 minutes (6 uL per well) and subsequently ADP-Glo™ Max development reagent was added for 60 minutes (12 uL per well) prior to signal detection in a microplate reader (EnVision® Multilabel Reader, Perkin Elmer). Following each reagent addition over the course of the assay, assay plates were pulse centrifuged for 30 seconds at 500 rpm.
In all cases, the enzyme converts ATP to ADP and the ADP-Glo™ Max reagent subsequently depletes any remaining endogenous ATP in the reaction system. The ADP-Glo™ Max detection reagent converts the ADP that has been enzymatically produced back into ATP and using ATP as a substrate together with luciferin for the enzyme luciferase, light is generated which produces a detectable luminescence. […] The percentage inhibition produced by each concentration of compound was calculated using the equation shown below: […]
Percentage inhibition was then plotted against compound concentration, and the 50% inhibitory concentration (IC50) was determined from the resultant concentration-response curve.

IC50 [nM] | Compound
< 100 | COCCC(NC(=O)c1ccc(-c2cncc(OC(C)C)n2)cc1F)c1csc(NS(=O)(=O)C2CC2)n1 (stereo not drawn) [Example R89, N-(1-(2-(cyclopropanesulfonamido)thiazol-4-yl)-3-methoxypropyl)-2-fluoro-4-(6-isopropoxypyrazin-2-yl)benzamide]
100 to 1000 | COc1cc(-c2cncc(Cl)n2)ccc1C(=O)NC(C)(C)c1csc(NS(=O)(=O)C2CC2)n1 [Example R49, 4-(6-chloropyrazin-2-yl)-N-(2-(2-(cyclopropanesulfonamido)thiazol-4-yl)propan-2-yl)-2-methoxybenzamide]
100 to 1000 | CCOc1cncc(-c2ccc(C(=O)N(C)C(CC)c3csc(NS(=O)(=O)C4CC4)n3)c(F)c2)n1 (racemic) [Example R63, N-(1-(2-(cyclopropanesulfonamido)thiazol-4-yl)propyl)-4-(6-ethoxypyrazin-2-yl)-2-fluoro-N-methylbenzamide]
< 100 | CC(C)Oc1cncc(-c2ccc(C(=O)NC(C)(C)c3csc(NS(=O)(=O)C4CC4)n3)c(F)c2)n1 [Example R43, N-(2-(2-(cyclopropanesulfonamido)thiazol-4-yl)propan-2-yl)-2-fluoro-4-(6-isopropoxypyrazin-2-yl)benzamide]
< 100 | COc1cncc(-c2ccc(C(=O)NC(C)(C)c3csc(NS(=O)(=O)C4CC4)n3)cc2)n1 [Example R54, N-(2-(2-(cyclopropanesulfonamido)thiazol-4-yl)propan-2-yl)-4-(6-methoxypyrazin-2-yl)benzamide]
100 to 1000 | O=C(NC1(c2csc(NS(=O)(=O)C3CC3)n2)CC1)c1ccc(-c2cccnc2)cc1 [Example R81, N-(1-(2-(cyclopropanesulfonamido)thiazol-4-yl)cyclopropyl)-4-(pyridin-3-yl)benzamide]
< 100 | CCOc1cncc(-c2ccc(C(=O)NC(C)c3csc(NS(=O)(=O)C4CC4)n3)c(F)c2)n1 (stereo not drawn) [Example R91, N-(1-(2-(cyclopropanesulfonamido)thiazol-4-yl)ethyl)-4-(6-ethoxypyrazin-2-yl)-2-fluorobenzamide]
100 to 1000 | Cc1cc(-c2cncc(C(F)(F)F)n2)ccc1C(=O)NC(C)(C)c1nc(NS(=O)(=O)C2CC2)sc1C [Example R76, N-(2-(2-(cyclopropanesuIfonamido)-5-methylthiazol-4-yl)propan-2-yl)-2-methyl-4-(6-(trifluoromethyl)pyrazin-2-yl)benzamide]
< 100 | CCOc1cncc(-c2ccc(C(=O)NC3(c4csc(NS(=O)(=O)C5CC5)n4)CC3)c(F)c2)n1 [Example R82, N-(1-(2-(cyclopropanesulfonamido)thiazol-4-yl)cyclopropyl)-4-(6-ethoxypyrazin-2-yl)-2-fluorobenzamide]
100 to 1000 | CCC(NC(=O)c1ccc(-c2cncc(OC(C)C)n2)cc1F)c1csc(NS(=O)(=O)C2CC2)n1 (racemic) [Example R64, N-(1-(2-(cyclopropanesulfonamido)thiazol-4-yl)propyl)-2-fluoro-4-(6-isopropoxypyrazin-2-yl)benzamide]
< 100 | CC(C)(NC(=O)c1ccc(-c2cncc(C(F)(F)F)n2)cc1)c1csc(NS(=O)(=O)C2CC2)n1 [Example R51, N-(2-(2-(cyclopropanesulfonamido)thiazol-4-yl)propan-2-yl)-4-(6-(trifluoromethyl)pyrazin-2-yl)benzamide]
100 to 1000 | CC(C)(NC(=O)c1ccc(-c2cncc(OCC(F)(F)F)n2)cc1)c1csc(NS(=O)(=O)C2CC2)n1 [Example R57, N-(2-(2-(cyclopropanesuIfonamido)thiazol-4-yl)propan-2-yl)-4-(6-(2,2,2-trifluoroethoxy)pyrazin-2-yl)benzamide]

Second part, the compound before the results:

Compound | IC50 [nM]
O=C(NCc1csc(NS(=O)(=O)C2CC2)n1)c1ccc(-c2cccnc2)cc1 [Example R1, N-((2-(cyclopropanesulfonamido)thiazol-4-yl)methyl)-4-(pyridin-3-yl)benzamide] | 100 to 1000
CCC(CC)(NC(=O)c1ccc(-c2cncc(F)c2)cc1)c1csc(NS(=O)(=O)C2CC2)n1 [Example R16, N-(3-(2-(cyclopropanesulfonamido)thiazol-4-yl)pentan-3-yl)-4-(5-fluoropyridin-3-yl)benzamide] | 100 to 1000
CCC(CC)(NC(=O)c1ccc(-c2cncc(C(F)(F)F)n2)cc1)c1csc(NS(=O)(=O)C2CC2)n1 [Example R19, N-(3-(2-(cyclopropanesulfonamido)thiazol-4-yl)pentan-3-yl)-4-(6-(trifluoromethyl)pyrazin-2-yl)benzamide] | < 100
CCC(NC(=O)c1ccc(-c2cncc(C(F)(F)F)c2)cc1)c1csc(NS(=O)(=O)C2CC2)n1 (single isomer, unassigned) [Example R3, N-(1-(2-(cyclopropanesulfonamido)thiazol-4-yl)propyl)-4-(5-(trifluoromethyl)pyridin-3-yl)benzamide] | 100 to 1000
O=C(NCc1csc(NS(=O)(=O)C2CC2)n1)c1ccc(-c2ccccc2)cn1 [Example R8, N-((2-(cyclopropanesulfonamido)thiazol-4-yl)methyl)-5-phenylpicolinamide] | 1000 to 10000
CC(C)(NC(=O)c1ccc(-c2cncc(Cl)c2)cc1F)c1csc(NS(=O)(=O)C2CC2)n1 [Example R30] | 100 to 1000
CC(C)(NC(=O)c1ccc(-c2cccc(C(F)(F)F)c2)cc1)c1csc(NS(=O)(=O)C2CC2)n1 [Example R40, N-(2-(2-(cyclopropanesulfonamido)thiazol-4-yl)propan-2-yl)-3′-(trifluoromethyl)-[1,1′-biphenyl]-4-carboxamide] | 100 to 1000
CCC(CC)(NC(=O)c1ccc(-c2cncc(C(F)(F)F)c2)cc1)c1csc(NS(=O)(=O)C2CC2)n1 [Example R15, N-(3-(2-(cyclopropanesulfonamido)thiazol-4-yl)pentan-3-yl)-4-(5-(trifluoromethyl)pyridin-3-yl)benzamide] | < 100
CCOc1cncc(-c2ccc(C(=O)NC(C)(C)c3csc(NS(=O)(=O)C4CC4)n3)c(OC)c2)n1 [Example R7, N-(2-(2-(cyclopropanesulfonamido)thiazol-4-yl)propan-2-yl)-4-(6-ethoxypyrazin-2-yl)-2-methoxybenzamide] | 100 to 1000
CCC(NC(=O)c1ccc(-c2cncc(C(F)(F)F)c2)cc1)c1csc(NS(=O)(=O)C2CC2)n1 (single isomer, unassigned) [Example R4, N-(1-(2-(cyclopropanesulfonamido)thiazol-4-yl)propyl)-4-(5-(trifluoromethyl)pyridin-3-yl)benzamide] | < 100
CC(C)(NC(=O)c1ccc(-c2cncc(C(F)(F)F)c2)cc1F)c1csc(NS(=O)(=O)C2CC2)n1 [Example R29] | < 100
O=C(NCc1csc(NS(=O)(=O)C2CC2)n1)c1ccc(-c2ccccc2)cc1 [Example R9, N-((2-(cyclopropanesulfonamido)thiazol-4-yl)methyl)-[1,1′-biphenyl]-4-carboxamide] | 1000 to 10000
CC(C)(NC(=O)c1ccc(-c2cncc(C(F)(F)F)n2)cn1)c1csc(NS(=O)(=O)C2CC2)n1 [Example R24, N-(2-(2-(cyclopropanesulfonamido)thiazol-4-yl)propan-2-yl)-5-(6-(trifluoromethyl)pyrazin-2-yl)picolinamide] | 100 to 1000
CC(C)(NC(=O)c1ccc(-c2cccnc2)cc1)c1csc(NS(=O)(=O)C2CC2)n1 [Example R39, N-(2-(2-(cyclopropanesulfonamido)thiazol-4-yl)propan-2-yl)-4-(pyridin-3-yl)benzamide] | 100 to 1000
Cc1ncccc1-c1ccc(C(=O)NC(C)(C)c2csc(NS(=O)(=O)C3CC3)n2)cc1 [Example R33] | 1000 to 10000
